Earlier results on one compound are cited in US20140187520A1, “STABLE INJECTABLE PHARMACEUTICAL COMPOSITION OF VITAMIN D RECEPTOR AGONIST AND PROCESS FOR PREPARATION THEREOF” (PHARMATHEN S.A., priority 2012, published 2014).

In the case of `C[C@H](/C=C/[C@H](C)C(C)(C)O)[C@H]1CC[C@H]2/C(=C/C=C3C[C@@H](O)C[C@H](O)C3)CCC[C@]12C` [paricalcitol, 19-nor-1α,3β,25-trihydroxy-9,10-secoergosta-5(Z),7(E), 22(E)-triene], the solubility in alcohol entry (alcohol) was “soluble”. The solubility in water result (water) is recorded as “insoluble”.
